Here are results for two substances from patent US20180291335A1, “MODIFIED POLYNUCLEOTIDES FOR ALTERING CELL PHENOTYPE” (ModernaTX, Inc., priority 2012, published 2018).

Data set [1] concerns Balb-C mice. In words: In vivo screening of combination luciferase modified mRNA, whole-body bioluminescence. The following applies: subcutaneous, 100 ug mRNA in 1×PBS, imaged 8 hours after dosing. The method, then: (§1) A control of PBS was also tested. The dosages of the modified luciferase mRNA is also outlined in Table 22. 8 hours after dosing the mice were imaged to determine luciferase expression. Twenty minutes prior to imaging, mice were injected intraperitoneally with a D-luciferin solution at 150 mg/kg. Animals were then anesthetized and images were acquired with an IVIS Lumina II imaging system (Perkin Elmer). Bioluminescence was measured as total flux (photons/second) of the entire mouse.

Data set [2] has as its system HeLa cells. In words: Luciferase in HeLa cells using a combination of modifications. The following applies: 83 ng luciferase modified RNA, 18 to 22 hours. The class given is cell-based, human. The procedure:
To evaluate using of 2′fluoro-modified mRNA in combination with other modification a series of mRNA were transcribed using either wild-type T7 polymerase (non-fluoro-containing compounds) or using mutant T7 polymerases (fluyoro-containing compounds) as described in Example 86. All modified mRNA were tested by in vitro transfection in HeLa cells.
The day before transfection, 20,000 HeLa cells (ATCC no. CCL-2; Manassas, Va.) were harvested by treatment with Trypsin-EDTA solution (LifeTechnologies, Grand Island, N.Y.) and seeded in a total volume of 100 ul EMEM medium (supplemented with 10% FCS and 1× Glutamax) per well in a 96-well cell culture plate (Corning, Manassas, Va.). The cells were grown at […] in 5% CO2 atmosphere overnight. […] Lipofectamine 2000 (LifeTechnologies, Grand Island, N.Y.) was used as transfection reagent and 0.2 ul were diluted in 10 ul final volume of OPTI-MEM. After 5 minutes of incubation at room temperature, both solutions were combined and incubated an additional 15 minute at room temperature. Then the 20 ul combined solution was added to the 100 ul cell culture medium containing the HeLa cells and incubated at room temperature.
After 18 to 22 hours of incubation cells expressing luciferase were lysed with 100 ul of Passive Lysis Buffer (Promega, Madison, Wis.) according to manufacturer instructions. Aliquots of the lysates were transferred to white opaque polystyrene 96-well plates (Corning, Manassas, Va.) and combined with 100 ul complete luciferase assay solution (Promega, Madison, Wis.). The lysate volumes were adjusted or diluted until no more than 2 mio relative light units (RLU) per well were detected for the strongest signal producing samples and the RLUs for each chemistry tested are shown in Table 26. The plate reader was a BioTek Synergy H1 (BioTek, Winooski, Vt.). The background signal of the plates without reagent was about 200 relative light units per well.

Data set [3] concerns Balb-C mice. In words: In vivo screening of luciferase modified mRNA, whole-body bioluminescence. As to conditions: subcutaneous. The procedure: as §1
The test system of data set [4] is HeLa cells. In words: 2′Fluoro luciferase mRNA transfection in HeLa cells. As to conditions: 83 ng 2′fluoro-containing luciferase RNA, 18 to 22 hours. The format is cell-based, human. The method, then:
The 2′Fluoro-modified mRNA were then transfected into HeLa cells to assess protein production in a cell context and the same mRNA were also assessed in a cell-free rabbit reticulocyte system. A control of unmodified luciferase (natural luciferase) was used for both transcription experiments, a control of untreated and mock transfected (Lipofectamine 2000 alone) were also analyzed for the HeLa transfection and a control of no RNA was analyzed for the rabbit reticulysates.
For the HeLa transfection experiments, the day before transfection, 20,000 HeLa cells (ATCC no. CCL-2; Manassas, Va.) were harvested by treatment with Trypsin-EDTA solution (LifeTechnologies, Grand Island, N.Y.) and seeded in a total volume of 100 ul EMEM medium (supplemented with 10% FCS and 1× Glutamax) per well in a 96-well cell culture plate (Corning, Manassas, Va.). The cells were grown at […] in 5% CO2 atmosphere overnight. […] Lipofectamine 2000 (LifeTechnologies, Grand Island, N.Y.) was used as transfection reagent and 0.2 ul were diluted in 10 ul final volume of OPTI-MEM. […] The lysate volumes were adjusted or diluted until no more than 2 mio relative light units (RLU) per well were detected for the strongest signal producing samples and the RLUs for each chemistry tested are shown in Table 24. The plate reader was a BioTek Synergy H1 (BioTek, Winooski, Vt.). […]

In data set [5] the test system is Rabbit Reticulocyte Lysate. In words: 2′Fluoro luciferase mRNA in rabbit reticulocyte lysate assay. The format is biochemical. As to conditions: Rabbit reticulysates, 250 ng luciferase mRNA, 60 minutes. The method, then: For the rabbit reticulocyte lysate assay, 2′-fluoro-containing luciferase mRNA were diluted in sterile nuclease-free water to a final amount of 250 ng in 10 ul and added to 40 ul of freshly prepared Rabbit Reticulocyte Lysate and the in vitro translation reaction was done in a standard 1.5 mL polypropylene reaction tube (Thermo Fisher Scientific, Waltham, Mass.) at 30° C. in a dry heating block. The translation assay was done with the Rabbit Reticulocyte Lysate (nuclease-treated) kit (Promega, Madison, Wis.) according to the manufacturer's instructions. The reaction buffer was supplemented with a one-to-one blend of provided amino acid stock solutions devoid of either Leucine or Methionine resulting in a reaction mix containing sufficient amounts of both amino acids to allow effective in vitro translation. […]
Aliquots of the in vitro translation reaction containing luciferase modified RNA were transferred to white opaque polystyrene 96-well plates (Corning, Manassas, Va.) and combined with 100 ul complete luciferase assay solution (Promega, Madison, Wis.). The volumes of the in vitro translation reactions were adjusted or diluted until no more than 2 mio relative light units (RLUs) per well were detected for the strongest signal producing samples and the RLUs for each chemistry tested are shown in Tables 24 and 25. The plate reader was a BioTek Synergy H1 (BioTek, Winooski, Vt.). […]

The test system of data set [6] is HeLa cells. In words: G-CSF modified mRNA transfected in HeLa cells, G-CSF ELISA. The following applies: HeLa cells, combination chemistries, ELISA. The class given is cell-based, human. In short, it runs like this: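 G-CSF ELISA readout after 250 ng of chemically modified human G-CSF mRNA (transcribed by mutant T7 polymerase) was added to rabbit reticulocyte lysate or transfected in vitro into HeLa cells.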
In general terms: An ELISA detects its analyte on a solid surface through an enzyme-linked reagent.

In the case of “5-methylcytidine/where 50% of the uridine is replaced with 2-thiouridine: Luciferase mRNA (SEQ ID NO: 409) with 5-methylcytidine and 50% of the uridine replaced with 2-thiouridine”, the “Luciferase expression (photon/second)” value in data set [1] worked out at 2.39E+06 photon/second. Also, the RLU in data set [2] is listed as 41,601 RLU.
Take “2′-flurorouridine: Luciferase mRNA (SEQ ID NO: 409) fully modified with 2′-fluorouridine”: in data set [3] (42 to 103 ug mRNA in 1×PBS, imaged 8 hours after dosing, total flux of entire mouse), the “Luciferase expression (photon/second)” value stood at 3.47E+05 photon/second. In addition, the in vivo activity result in data set [3] (luciferase mRNA, result in words) is listed as “exception”. Besides, the RLU came to 6767.5 RLU in data set [4], 258 RLU in data set [5] and 305 RLU in data set [2]. In data set [6], the “G-CSF protein (pg/ml) HeLa cells” value is 0 pg/mL.
